Experimental data reported in patent US20240316223A1, “Oxidative Cyclization Reagents for Chemoselective Tryptophan Bioconjugation” (The Regents of the University of California, priority 2021, published 2024).
Peptide text beside a SMILES is read from it. * marks the point of attachment. Cbz = O=C(OCc1ccccc1)*

What was measured:
[1] = Selectivity and reactivity of Ac-Trp-OMe with N-sulfonyl oxaziridines (LC-MS); conditions: for selectivity for the indole cycloadduct product: library screen with Ac-Trp-OMe
Procedure: Initial reactivity studies with the N-sulfonyl oxaziridine Ox-W1 and N-acetyl-L-tryptophan methyl ester (Ac-Trp-OMe) were then performed in PBS/organic solvent mixture for 10 min at room temperature and subjected to liquid chromatography-mass spectrometry (LC-MS) analysis. Tryptophan reacted with a ˜50% conversion. Two major products were observed: the desired indole cycloadduct and hydroxyl tryptophan. The cycloadduct was generated with 28% yield, consistent with simple indoles that can react with such oxaziridines in organic solution (28). […] We then synthesized and screened a library of 20 different oxaziridines for Trp-CLiC chemistry; Ox-W10, Ox-W17, and Ox-W19 emerged as the top lead candidates with improved ˜90% selectivity and high reactivity for the indole cycloadduct product, with a measured reaction rate of 24.9±1.3M^−1 s^−1 that is on par with click chemistry reactions (29-31).
A stock solution of Ac-Trp-OMe (100 mM) in MeOH was mixed with oxaziridine (100 mM) in MeOH (v/v ratio=1:1.2), followed by the immediate addition of PBS (1 volume equiv. to make 1:1 PBS/MeOH). For some oxaziridines with low solubility, the reaction was performed in PBS/MeOH/MeCN (1:1:1) co-solvent. […] It is important the initial stock solutions of Ac-Trp-OMe and oxaziridine are fully homogeneous prior to mixing.
For LC-MS analysis, solvent A was water and solvent B was methanol. The linear gradient was 40-100% B in 6.5 min and 100% B for 1.5 min.

[2] = Kinetics of the Trp-CLiC reaction (absorbance at 280 nm, UV-Vis); conditions: PBS buffer, 25° C.
Procedure: For kinetics study of the Trp-CLiC reaction, the absorbance at 280 nm was time-dependently monitored by UV-Vis upon adding Ox-W18 (50 μM) into different concentrations of Ac-Trp-OMe (500 μM, 550 μM and 600 μM) in PBS buffer at 25° C. Then the second-order reaction rate constant could be obtained.

[3] = Reaction of oxaziridine with methionine
HeLa cells = assay: Unfolding stress detection in living cells (desthiobiotin oxaziridine labeling, Western blot against biotin); assay type: cell-based; conditions: HeLa cells treated 8 hours, lysate labeled with desthiobiotin oxaziridine (250 μM)
Excerpt: In another application, we used Trp-CLiC as a general method to probe stress-induced protein unfolding. Indeed, under various environmental stresses, folded proteins will expose more hydrophobic residues as they unfold, and accumulation and aggregation of unfolded proteins is regarded as a signal of loss of proteostasis (34-37). Owing to its sterically demanding and hydrophobic properties, tryptophan residues are more likely to be buried in protein cores. We reasoned that this oxidative cyclization method could enable monitoring of increases in solvent accessibility of buried tryptophan residues during stress-induced protein unfolding. To test this hypothesis, we labeled lysozyme as a model protein in the presence of varying concentrations of guanidinium chloride (GdmCl) as a denaturant. […] We then used Trp-CLiC to monitor stress-induced protein unfolding in whole cell proteomes. HeLa cells were treated with the proteasome inhibitor MG-132, the ER stress inducer Tunicamycin to trigger unfolded protein stress responses, or vehicle control, then lysed and labeled with N-sulfonyl oxaziridine linked to desthiobiotin.
HeLa cells were treated with MG-132 (5 μg/ml) or Tunicamycin (5 μM) for 8 hours. Then cells were harvested and lysed in PBS buffer (1% Triton, with protease inhibitors). […] The labeling results were detected by Western blot analysis against biotin.

GLP-1 = GLP-1 (Homo sapiens, UniProt P01275); assay: Oxaziridine screening on peptides: GLP-1 (Q-TOF); assay type: biochemical; conditions: GLP-1 (50 μM), oxaziridine (300 μM)
Procedure: Peptides were dissolved in 5% DMSO solution. […] The labeled peptides were subjected to Q-TOF analysis with a Proswift RP-4H (monolithic phenyl, 1.0 mm×50 mm, Dionex) column. The Solvent A was MilliQ water with 0.1% (v/v) formic acid, while the Solvent B was ACN with 0.1% (v/v) formic acid. The LC system was set at the 0.30 mL/min with a gradient of 5-100% solvent B in solvent A over 8 min. MassHunter Quantitative Analysis Version software was used for ion chromatogram extraction and Maximum Entropy deconvolution.

HEK 293T cell lysates = assay: Activity-based protein profiling (ABPP) of hyperreactive tryptophan sites; assay type: biochemical, human; conditions: identified in more than two replicates
Excerpt: We next moved on to apply Trp-CLiC at the whole proteome level, specifically to identify new functional tryptophan sites in cells using activity-based protein profiling (ABPP).
From the ABPP studies with the Trp-CLiC method, 190 unique hyperreactive tryptophan sites from 151 probe-modified proteins were identified in more than two replicates. These Ox-W18-labeled tryptophan sites were found in many classes of proteins, including enzymes, chaperones, and nucleoproteins, as well as many structural proteins. Meanwhile, we noticed that many targets are classified as non-druggable and highly enriched in diverse phase-separated compartments, such as the nucleolus, nuclear body, paraspeckle and stress granule. […] For example, the hyperreactive W196 site identified on GAPDH, W346 site found on TBA1B, and W324 and W148 on LDHA enzyme are the most surface-exposed tryptophan residues in these proteins, whereas other tryptophan residues were not probed. […] GAPDH and TBA1B were chosen as representative examples to showcase the Trp-CLiC method for ABPP. […] We then sought to further investigate the character of probed solvent-accessible tryptophan sites by performing motif analysis. […] Lysine is hydrophilic and has the capacity to form cation-π interactions with the indole tryptophan ring, providing a potential pathway for stabilizing hydrophobic tryptophan residues being surface-exposed (38, 39). […]

GAPDH and TBA1B = GAPDH and TBA1B labeling by Western Blot; assay type: biochemical
Excerpt: From the ABPP studies with the Trp-CLiC method, 190 unique hyperreactive tryptophan sites from 151 probe-modified proteins were identified in more than two replicates. These Ox-W18-labeled tryptophan sites were found in many classes of proteins, including enzymes, chaperones, and nucleoproteins, as well as many structural proteins. Meanwhile, we noticed that many targets are classified as non-druggable and highly enriched in diverse phase-separated compartments, such as the nucleolus, nuclear body, paraspeckle and stress granule. […] For example, the hyperreactive W196 site identified on GAPDH, W346 site found on TBA1B, and W324 and W148 on LDHA enzyme are the most surface-exposed tryptophan residues in these proteins, whereas other tryptophan residues were not probed. […] GAPDH and TBA1B were chosen as representative examples to showcase the Trp-CLiC method for ABPP. […] We then sought to further investigate the character of probed solvent-accessible tryptophan sites by performing motif analysis. […] Lysine is hydrophilic and has the capacity to form cation-π interactions with the indole tryptophan ring, providing a potential pathway for stabilizing hydrophobic tryptophan residues being surface-exposed (38, 39).

lysozyme = lysozyme (Gallus gallus, UniProt P00698); assay: Lysozyme labelling with Ox-W18 (A260/A280 ratio, LC-MS/MS); conditions: native folded conditions
Excerpt: Based on spectroscopic analyses, we used the ratio of absorption signatures at 260 and 280 nm (A260/A280 ratio) to track tryptophan bioconjugation on lysozyme.
We next evaluated how many and which tryptophan residues on lysozyme are prioritized for redox-based Trp-CLiC labeling under native folded conditions. […] We then moved on to identify which tryptophan sites are targeted and tested the hypothesis that the propensity of oxidative tryptophan modification reactivity might correlate with solvent accessibility. To this end, we used the Discovery Studio platform to calculate the relative solvent accessibility of the six tryptophan residues on lysozyme.
Proteins were dissolved in Tris (50 mM, pH 8.0) buffer. Ox-W18 (100 mM stock in DMF) was added to 30 μL protein solution (50 μM) and the final concentration was 300 μM. The reactions were performed for 10 min at room temperature and then quenched by addition of excess Ac-Met-OMe solution. For protein labelling under denaturing condition, the protein solution was treated with 0.5% SDS and then boiled for 5 min at 95° C. before Ox-W18 addition. For competition assay, free Ac-Trp-OMe (2 mM) was added beforehand. […]
(§1) Trypsin digested peptides were analyzed on a Thermo Scientific Q Exactive™ Plus Hybrid Quadrupole-Orbitrap™ Mass Spectrometer coupled with an Aligent 1260 Infinite LC system. […]

IL8 = molecular target: T1, IL8 (Homo sapiens, UniProt P10145); assay: Protein labelling with N-sulfonyl oxaziridine: IL8 (LC-MS/MS); conditions: native vs denaturant-treated IL8
T1 sequence (P10145 21-99): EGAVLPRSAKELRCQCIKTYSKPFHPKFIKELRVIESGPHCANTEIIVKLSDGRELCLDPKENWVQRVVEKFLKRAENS
Procedure: We then went on to label the model protein IL8, which has one partially buried tryptophan site.
Proteins were dissolved in Tris (50 mM, pH 8.0) buffer. Ox-W18 (100 mM stock in DMF) was added to 30 μL protein solution (50 μM) and the final concentration was 300 μM. The reactions were performed for 10 min at room temperature and then quenched by addition of excess Ac-Met-OMe solution. For protein labelling under denaturing condition, the protein solution was treated with 0.5% SDS and then boiled for 5 min at 95° C. before Ox-W18 addition. For competition assay, free Ac-Trp-OMe (2 mM) was added beforehand. […] After tryptophan labelling with Ox-W18, the proteins were desalted with Zeba™ Spin Desalting Columns (7K MWCO, 0.5 mL) before subsequent Q-TOF analysis and UV-Vis analysis or further click reaction. In-gel fluorescence imaging was also applied to test the tryptophan labelling efficiency. For the copper-mediated alkyne-azide cyclization reaction of fluorescence dye, 100 μM CuSO4, 100 μM TBTA, 100 μM azide-dye and 2 mM sodium ascorbate was added to Ox-W18-labeled proteins. […]
as §1
For protein ID and modification identification, all MS/MS raw files were analyzed using pFind platform. […]

[4] = Ac-Trp-OMe, PBS/organic solvent mixture, 10 min, room temperature

GLP-1, sequence (P01275 92-128 limits assumed): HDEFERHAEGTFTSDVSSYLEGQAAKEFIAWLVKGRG
lysozyme, sequence (P00698 19-147): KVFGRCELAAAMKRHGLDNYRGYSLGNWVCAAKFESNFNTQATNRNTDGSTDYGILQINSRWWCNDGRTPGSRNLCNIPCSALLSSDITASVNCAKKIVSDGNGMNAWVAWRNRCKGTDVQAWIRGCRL

Q: For `C#CCN(C)S(=O)(=O)N1OC1c1ccc([N+](=O)[O-])cc1[N+](=O)[O-]` (stereo not drawn) [Ox-W19], which “selectivity for the indole cycloadduct product” value (shortened to “selectivity”) [1] is on record?
A: Its value is ~90%.

Q: And the “measured reaction rate (second-order rate constant)” value (shortened to “measured reaction rate”) [2]?
A: Its value is 24.9 ± 1.3 M⁻¹ s⁻¹.

Q: For `C#Cc1ccc(S(=O)(=O)N2OC2c2ccccc2[N+](=O)[O-])cc1` (stereo not drawn) [Ox-W17], which “selectivity” value [1] is on record?
A: The value was ~90%.

Q: What about the “measured reaction rate” value [2] of the same compound?
A: Its value is 24.9 ± 1.3 M⁻¹ s⁻¹.

Q: Which Tryptophan conversion [1, 4] does the source give for `CS(=O)(=O)N1OC1c1ccccc1` (stereo not drawn) [Ox-W1] here?
A: The Tryptophan conversion was ~50%.

Q: And the indole cycloadduct yield [1, 4]?
A: Its indole cycloadduct yield is 28%.

Q: And the “product of reaction with methionine” value [3]?
A: The value was “traceless methionine sulfoxide adduct”.

Q: With `CC(C)C[C@@H](C=O)NC(=O)[C@H](CC(C)C)NC(=O)[C@H](CC(C)C)NC(=O)OCc1ccccc1` [MG-132] (Cbz-Leu-Leu-Leu-aldehyde) as the compound, how does the “desthiobiotin staining signal vs vehicle control” value (HeLa cells) read?
A: Its value is “more desthiobiotin staining signal”.

Q: For `COc1ccc(S(=O)(=O)N2OC2c2ccc([N+](=O)[O-])cc2[N+](=O)[O-])cc1` (stereo not drawn) [Ox-W10], which “selectivity” value [1] is on record?
A: Its value is ~90%.

Q: And the “measured reaction rate” value [2]?
A: Its value is 24.9 ± 1.3 M⁻¹ s⁻¹.

Q: With `C#CCN(C)S(=O)(=O)N1OC1c1ccccc1[N+](=O)[O-]` (stereo not drawn) [Ox-W18] as the compound, how does the conversion (GLP-1) read?
A: The conversion was “quantitative”.

Q: And the cycloadduct yield (GLP-1)?
A: The cycloadduct yield was 74%.

Q: What about the probe-modified proteins identified (HEK 293T cell lysates) of the same compound?
A: The probe-modified proteins identified was 151.

Q: What about the “unique hyperreactive tryptophan sites identified” value (HEK 293T cell lysates) of the same compound?
A: The value was 190.

Q: What about the “GAPDH and TBA1B labeling with increased probe addition” value (GAPDH and TBA1B) of the same compound?
A: The value was “more GAPDH and TBA1B labeling”.

Q: What about the A260/A280 ratio (lysozyme) of the same compound?
A: Its A260/A280 ratio is 0.80.

Q: What about the “modification of the partially buried tryptophan site” value (IL8) of the same compound?
A: Its value is “modified only after treatment with a denaturant”.

Q: For Tunicamycin, which “desthiobiotin staining signal vs vehicle control” value (HeLa cells) is on record?
A: Its value is “more desthiobiotin staining signal”.
